From patent US20240024273A1, “TOPICAL ADMINISTRATION OF 2-(DIETHYLAMINO)ETHYL 2-(4-ISOBUTYLPHENYL)PROPRIONATE FOR TREATMENT OF DISEASES” (TECHFIELDS PHARMA CO., LTD., priority 2020, published 2024)

Tested on: Subjects with Osteoarthritis of the Knee
Experiment: Second Phase 2 study: safety (treatment-emergent adverse events)
Type: in vivo, human
Set-up: Serious Treatment-emergent Adverse Event: SAE Criteria: scale not given here
Source text: Safety assessments will be performed at each visit and will include assessment of AEs, vital signs (blood pressure, pulse rate, and oral temperature), clinical laboratories, physical examination, skin irritation, and electrocardiograms (ECGs) as indicated in the study flow chart, Table 47.
Safety assessments will include AEs, vital signs (blood pressures, pulse rate, and oral temperature), clinical laboratories, physical examination, skin irritation, and ECGs at various time points during the study as indicated in the study flow chart.
Adverse events of interest include: local skin reactions around the treated knee(s), upper stomach pain, GI bleeding, serious cardiovascular side effects (e.g., thrombotic events, myocardial infarction, or stroke), jaundice, elevated liver function tests, and nausea.
Safety analyses will be conducted on the SAS. Safety parameters will be listed and summarized using standard descriptive statistics, as appropriate. No formal statistical analyses are planned.

[1] = 8.75 mg, BID, subject 279/08/M66, Transient Ischemic Attack

## CCN(CC)CCOC(=O)C(C)c1ccc(CC(C)C)cc1 (centres unmarked) [2-(diethylamino)ethyl 2-(4-isobutylphenyl)propionate]
4.375 mg/knee, BID, N = 71
  Infections and Infestations: number of adverse events: 24
  Infections and Infestations: subjects with adverse events, number (percentage): 23(32.4%)
  Influenza: number of adverse events: 3
  Injury, Poisoning and Procedural Complications: number of adverse events: 3
  Investigations: number of adverse events: 11
  Investigations: percentage of subjects with adverse events: 15.5%
  Investigations: subjects with adverse events: 11
  Metabolism and Nutrition Disorders: number of adverse events: 7
  Metabolism and Nutrition Disorders: percentage of subjects with adverse events: 8.5%
  Metabolism and Nutrition Disorders: subjects with adverse events: 6
  Musculoskeletal Pain: number of adverse events: 1(%)[1]
  Musculoskeletal Pain: subjects with adverse events, number (percentage): 1(%)[1]
  Musculoskeletal and Connective Tissue Disorders, Overall Total: number of adverse events: 3
  Neck Pain: number of adverse events: 1(%)[1]
  Neck Pain: subjects with adverse events, number (percentage): 1(%)[1]
  Nervous System Disorders: number of adverse events: 1
  Nervous System Disorders: subjects with adverse events, number (percentage): 1(1.4%)
  Oropharyngeal Pain: number of adverse events: 2
  Oropharyngeal Pain: subjects with adverse events, number (percentage): 2(1.4%)
  Rash: number of adverse events: 1
  Rash: percentage of subjects with adverse events: 1.4%
  Rash: subjects with adverse events: 1
  Respiratory, Thoracic and Mediastinal Disorders: number of adverse events: 6
  Respiratory, Thoracic and Mediastinal Disorders: subjects with adverse events, number (percentage): 6(8.5%)
  Rhinorrhoea: number of adverse events: 1
  Rhinorrhoea: subjects with adverse events, number (percentage): 1(1.4%)
  Skin Irritation: number of adverse events: 1
  Skin Irritation: percentage of subjects with adverse events: 1.4%
  Skin Irritation: subjects with adverse events: 1
  Skin and Subcutaneous Tissue Disorders: number of adverse events: 2
  Skin and Subcutaneous Tissue Disorders: percentage of subjects with adverse events: 2.8%
  Skin and Subcutaneous Tissue Disorders: subjects with adverse events: 2
  Subjects with Positive Fecal Occult Blood Test: 5
  Subjects with Positive Fecal Occult Blood Test, percentage: 7.0%
  Throat Irritation: number of adverse events: 2
  Throat Irritation: subjects with adverse events, number (percentage): 2(2.8%)
  Toothache: number of adverse events: 2
  Toothache: percentage of subjects with adverse events: 2.8%
  Toothache: subjects with adverse events: 2
  Transaminases Increased: number of adverse events: 1
  Transaminases Increased: percentage of subjects with adverse events: 1.4%
  Transaminases Increased: subjects with adverse events: 1
  Upper Respiratory Tract Infection: number of adverse events: 12
  Urinary Tract Infection: number of adverse events: 8
  Urinary Tract Infection: subjects with adverse events, number (percentage): 8(11.3%)
  Vascular Disorders: number of adverse events: 1
  Vascular Disorders: percentage of subjects with adverse events: 1.4%
  Vascular Disorders: subjects with adverse events: 1
  White Blood Cell Count Decreased: number of adverse events: 2
  White Blood Cell Count Decreased: percentage of subjects with adverse events: 2.8%
  White Blood Cell Count Decreased: subjects with adverse events: 2
[1]
  Serious Treatment-emergent Adverse Event: Duration: < 11 days
  Serious Treatment-emergent Adverse Event: SAE Criteria: 6
  Serious Treatment-emergent Adverse Event: Severity: Severe
8.75 mg, BID, subject 279/08/M66, Transient Ischemic Attack, cell wraps: Possible / unrelated
  Serious Treatment-emergent Adverse Event: Relationship to Study Drug: Possible
8.75 mg, BID, subject 279/08/M66, Transient Ischemic Attack, cell wraps: Recovered/ resolved
  Serious Treatment-emergent Adverse Event: Outcome: Recovered/
8.75 mg, BID, subject 279/08/M66, [Thrombosis] (Vascular Disorders)
  Serious Treatment-emergent Adverse Event: Transient Ischemic Attack
8.75 mg/knee (BID)
  GI disorders incidence rate: 14.3%
  incidence rate of AEs possibly, probably, or definitely related to study drug: 41.4%
  infections and infestations incidence rate: 28.6%
  positive fecal occult blood test incidence rate: 7.1%
8.75 mg/knee, BID, N = 70
  Abdominal Discomfort: number of adverse events: 4
